According to PMC5441637, “The mitochondrial SIR2 related protein 2 (SIR2RP2) impacts Leishmania donovani growth and infectivity” (PLoS Neglected Tropical Diseases, 2017):

molecular target: T1, SIR2 related protein 2 (LdSIR2RP2) (Leishmania donovani, UniProt A0A3S7WXV8); assay: […]NAD+ ADP-ribosyltransferase assay on calf thymus histones, SDS-PAGE/PhosphorImager; format: biochemical
T1 construct: gene LdCL_230021600; full-length recombinant LdSIR2RP2 (complete ORF, 320 aa; MBP/His tag removed by TEV)
T1 sequence (A0A3S7WXV8 entry or part of it): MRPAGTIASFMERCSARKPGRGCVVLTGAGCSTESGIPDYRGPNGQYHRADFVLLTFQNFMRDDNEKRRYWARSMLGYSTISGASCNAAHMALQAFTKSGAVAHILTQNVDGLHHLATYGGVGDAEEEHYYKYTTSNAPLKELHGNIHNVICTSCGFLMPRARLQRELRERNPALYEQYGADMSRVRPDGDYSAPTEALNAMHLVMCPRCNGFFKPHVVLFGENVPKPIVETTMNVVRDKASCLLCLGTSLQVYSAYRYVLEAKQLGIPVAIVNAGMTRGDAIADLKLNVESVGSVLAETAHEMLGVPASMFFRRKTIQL

Structure (SMILES) | [32P]NAD+ ADP-ribosyltransferase assay on calf thymus histones, SDS-PAGE/Phospho
NC(=O)C1CCCc2c1[nH]c1ccc(Cl)cc21 (stereo not drawn) [Ex-527, 6-chloro-2,3,4,9-tetrahydro-1H-carbazole-1-carboxamide] | ~ 50 μM
O=c1[nH]c(=S)[nH]c(-c2ccccc2)c1Cc1c(O)ccc2ccccc12 [cambinol] | ~ 2.5 μM
NC(=O)c1cccnc1 [nicotinamide] | ~ 50 μM
